# Tested on: ADP-induced aggregation of human blood platelets in platelet-rich-plasma
# Assay: In vitro inhibition of ADP-induced human platelet aggregation (aggregometer method, PRP)
# Type: cell-based
# Settings: Homo sapiens, Platelet, read-out: IC50 (human PRP vs ADP), human PRP, incubated at about 37° C. for about 3 minutes prior to ADP
# Experimental: The aggregometer method of Born, G. V. R., J. Physiol., (London), 162, 67-68, (1962) as modified by Mustard, J. F., et al., J. Lab. Clin. Med., 64, 548-599, (1964) was used to assess the in vitro activity of the various compounds as to the inhibition of adenosine diphosphate (ADP) and collagen-induced platelet aggregation. The human volunteer donor's arm is cleansed with 70% ethyl alcohol. A sterile 20 ml syringe and needle are used to withdraw 20 ml of blood. The blood is immediately added to a test tube containing 3.8% sodium citrate to prevent clotting (1 part citrate to 9 parts blood).
# Platelet rich plasma (PRP) was separated by centrifugation for 10 minutes at 1000 rpm (140×g) from citrated (3.8%) human blood. All glassware used for preparation of PRP is silicon treated. ADP in final concentration of 0.5 mcg/mL or 0.05 mL of a collagen suspension prepared according to the method described by Evans, G., et al., J. Exp. Med., 128, 877-894, (1968) was used to induce aggregation. The various compounds tested were dissolved in dimethylsulfoxide (DMSO) so that 5 mcl added to the platelet rich plasma would yield the desired test concentration. Vehicle control trials were done and compared with aggregation induced in platelet rich plasma containing various concentrations of the test compounds. Dose response curves were obtained and Inhibitor Concentration (IC50) values calculated.
# The target compounds were evaluated as inhibitors of ADP-induced aggregation of human blood platelet in platelet-rich-plasma (PRP) in vitro. The test compounds were incubated at about 37° C. in PRP for about 3 minutes prior to the addition of sufficient ADP to provide final ADP concentration of […].
row,SMILES,IC50
1,"COC(=O)COc1cccc([C@@H]2OC=N[C@H]2c2nc(-c3ccccc3)c(-c3ccccc3)o2)c1 (relative stereo) [Compound 31, Methyl[3-[4-(4,5-diphenyl-2-oxazolyl)-4,5-dihydro-5-oxazolyl]phenoxy]acetate]",0.08 µg/mL
2,"COC(=O)COc1cccc([C@@H]2OC(C)=N[C@H]2c2nc(-c3ccccc3)c(-c3ccccc3)o2)c1 (relative stereo) [Compound 39, Methyl[3-[4-(4,5-diphenyl-2-oxazolyl)-4,5-dihydro-2-methyl-5-oxazolyl]phenoxy]acetate]",0.65 µg/mL
3,"COC(=O)COc1cccc([C@@H]2OC(c3ccccc3)=N[C@H]2c2nc(-c3ccccc3)c(-c3ccccc3)o2)c1 (relative stereo) [Compound 40, Methyl[3-[4-(4,5-diphenyl-2-oxazolyl)-4,5-dihydro-2-phenyl-5-oxazolyl]phenoxy]acetate]",10 µg/mL
4,"COC(=O)COc1cccc([C@H]2OC(C)=N[C@H]2c2nc(-c3ccccc3)c(-c3ccccc3)o2)c1 (relative stereo) [Compound 41, Methyl[3-[4-(4,5-diphenyl-2-oxazolyl)-4,5-dihydro-2-methyl-5-oxazolyl]phenoxy]acetate]",27 µg/mL
5,"COC(=O)COc1cccc([C@H]2OC(c3ccccc3)=N[C@H]2c2nc(-c3ccccc3)c(-c3ccccc3)o2)c1 (relative stereo) [Compound 42, Methyl[3-[4-(4,5-diphenyl-2-oxazolyl)-4,5-dihydro-2-phenyl-5-oxazolyl]phenoxy]acetate]",32 µg/mL
6,COC(=O)COc1cccc(-c2ncoc2-c2nc(-c3ccccc3)c(-c3ccccc3)o2)c1 [Compound 4],0.174 µg/mL
7,O=C(O)COc1cccc(-c2ncoc2-c2nc(-c3ccccc3)c(-c3ccccc3)o2)c1 [Compound 5],0.07 µg/mL
8,"COC(=O)COc1cccc(-c2ccccc2-c2nc(-c3ccccc3)c(-c3ccccc3)o2)c1 [Compound 6, Methyl[2'-(4,5-diphenyl-2-oxazolyl)-[1,1'-biphenyl]-3-yloxy]acetate]",32 µg/mL
9,"O=C(O)COc1cccc(-c2ccccc2-c2nc(-c3ccccc3)c(-c3ccccc3)o2)c1 [Compound 7, [2'-(4,5-Diphenyl-2-oxazolyl)-[1,1'-biphenyl]-3-yloxy]acetic acid]",5 µg/mL
10,"COC(=O)COc1cccc(-c2nn(C)cc2-c2nc(-c3ccccc3)c(-c3ccccc3)o2)c1 [Compound 11, Methyl[3-[4-(4,5-diphenyl-2-oxazoly)-1-methyl-3-pyrazolyl]phenoxy]acetate]",1.12 µg/mL
11,Cn1cc(-c2nc(-c3ccccc3)c(-c3ccccc3)o2)c(-c2cccc(OCC(=O)O)c2)n1 [Compound 12],0.3 µg/mL
12,"COC(=O)COc1cccc(-c2c(-c3nc(-c4ccccc4)c(-c4ccccc4)o3)cnn2C)c1 [Compound 13, Methyl[3-[4-(4,5-diphenyl-2-oxazolyl)-1-methyl-5-pyrazolyl]phenoxy]acetate]",0.75 µg/mL
13,Cn1ncc(-c2nc(-c3ccccc3)c(-c3ccccc3)o2)c1-c1cccc(OCC(=O)O)c1 [Compound 14],0.5 µg/mL
14,"COC(=O)COc1cccc(-c2[nH]ncc2-c2nc(-c3ccccc3)c(-c3ccccc3)o2)c1 [Compound 15, Methyl[3-[4-(4,5-diphenyl-2-oxazolyl)-5-pyrazolyl]phenoxy]acetate]",0.07 µg/mL
15,"O=C(O)COc1cccc(-c2[nH]ncc2-c2nc(-c3ccccc3)c(-c3ccccc3)o2)c1 [Compound 16, [3-[4-(4,5-Diphenyl-2-oxazolyl)-5-pyrazolyl]phenoxy]acetic acid]",0.08 µg/mL
16,"COC(=O)COc1cccc(-c2oc(C)nc2-c2nc(-c3ccccc3)c(-c3ccccc3)o2)c1 [Compound 23, Methyl[3-[4-(4,5-diphenyl-2-oxazolyl)-2-methyl-5-oxazolyl]phenoxy]acetate]",0.13 µg/mL
17,Cc1nc(-c2nc(-c3ccccc3)c(-c3ccccc3)o2)c(-c2cccc(OCC(=O)O)c2)o1 [Compound 24],0.02 µg/mL
18,"COC(=O)COc1cccc(-c2oc(-c3ccccc3)nc2-c2nc(-c3ccccc3)c(-c3ccccc3)o2)c1 [Compound 25, Methyl[3-[4-(4,5-diphenyl-2-oxazolyl) -2-phenyl-5-oxazolyl]phenoxy]acetate]",32 µg/mL
19,"O=C(O)COc1cccc(-c2oc(-c3ccccc3)nc2-c2nc(-c3ccccc3)c(-c3ccccc3)o2)c1 [Compound 26, [3-[4-(4,5-Diphenyl-2-oxazolyl)-2-phenyl-5-oxazolyl]phenoxy]acetic acid]",32 µg/mL
20,"COC(=O)COc1cccc(C(O)C(NC=O)c2nc(-c3ccccc3)c(-c3ccccc3)o2)c1 (centres unmarked) [Compound 33, Methyl[3-[2-(4,5-diphenyl-2-oxazolyl)-2-(formylamino)-1-hydroxy-ethyl]phenoxy]acetate]",10 µg/mL
21,O=CNC(c1nc(-c2ccccc2)c(-c2ccccc2)o1)C(O)c1cccc(OCC(=O)O)c1 (centres unmarked) [Compound 36],6.5 µg/mL
22,"COC(=O)COc1cccc(C(O)C(N)c2nc(-c3ccccc3)c(-c3ccccc3)o2)c1 (centres unmarked) [Compound 38, Methyl[3-[2-(4,5-diphenyl-2-oxazolyl)-2-amino-1-hydroxyethyl]phenoxy]acetate]",2.8 µg/mL
23,"COC(=O)COc1cccc(C2OC(=O)NC2c2nc(-c3ccccc3)c(-c3ccccc3)o2)c1 (centres unmarked) [Compound 43, Methyl[3-[4-(4,5-diphenyl-2-oxazolyl)-2-oxo-5-oxazolidinyl]phenoxy]acetate]",5 µg/mL

# Same assay, conditions: Homo sapiens, Platelet, read-out: percentage in brackets beside the IC50 entry 32 (inhibition of ADP-induced aggregation)
row,SMILES,inhibition at 32 µg/mL
1,"COC(=O)COc1cccc([C@H]2OC(c3ccccc3)=N[C@H]2c2nc(-c3ccccc3)c(-c3ccccc3)o2)c1 (relative stereo) [Compound 42, Methyl[3-[4-(4,5-diphenyl-2-oxazolyl)-4,5-dihydro-2-phenyl-5-oxazolyl]phenoxy]acetate]",15%
2,"COC(=O)COc1cccc(-c2ccccc2-c2nc(-c3ccccc3)c(-c3ccccc3)o2)c1 [Compound 6, Methyl[2'-(4,5-diphenyl-2-oxazolyl)-[1,1'-biphenyl]-3-yloxy]acetate]",34%
3,"COC(=O)COc1cccc(-c2oc(-c3ccccc3)nc2-c2nc(-c3ccccc3)c(-c3ccccc3)o2)c1 [Compound 25, Methyl[3-[4-(4,5-diphenyl-2-oxazolyl) -2-phenyl-5-oxazolyl]phenoxy]acetate]",6%
4,"O=C(O)COc1cccc(C2OC(=O)NC2c2nc(-c3ccccc3)c(-c3ccccc3)o2)c1 (centres unmarked) [Compound 45, [3-[4-(4,5-Diphenyl-2-oxazolyl)-2-oxo-5-oxazolidinyl]phenoxy]acetic acid]",8%

# Same assay, conditions: human PRP, incubated at about 37° C. for about 3 minutes prior to ADP
row,SMILES,IC50 (human PRP vs ADP)
1,NC(c1nc(-c2ccccc2)c(-c2ccccc2)o1)C(O)c1cccc(OCC(=O)O)c1 (centres unmarked) [Compound 37],0.9 µg/mL
2,"O=C(O)COc1cccc(C2OC(=O)NC2c2nc(-c3ccccc3)c(-c3ccccc3)o2)c1 (centres unmarked) [Compound 44, [3-[4-(4,5-Diphenyl-2-oxazolyl)-2-oxo-5-oxazolidinyl]phenoxy]acetic acid]",1 µg/mL
3,"O=C(O)COc1cccc(C2OC(=O)NC2c2nc(-c3ccccc3)c(-c3ccccc3)o2)c1 (centres unmarked) [Compound 45, [3-[4-(4,5-Diphenyl-2-oxazolyl)-2-oxo-5-oxazolidinyl]phenoxy]acetic acid]",32 µg/mL

# Tested on: platelet aggregation (human PRP vs ADP)
# Assay: not given
# Settings: U.S. Pat. No. 4,460,598 / Drugs of the Future 11, 26 (1986); cited from earlier work
row,SMILES,"inhibition of platelet aggregation, in words"
1,O=C(O)CCCCCCCOc1nc(-c2ccccc2)c(-c2ccccc2)n1-c1ccccc1 [Octimibate],broad spectrum inhibitor of platelet aggregation

# Same assay, conditions: human PRP vs ADP; U.S. Pat. No. 4,460,598 / Drugs of the Future 11, 26 (1986); cited from earlier work
row,SMILES,IC50 (human PRP vs ADP)
1,O=C(O)CCCCCCCOc1nc(-c2ccccc2)c(-c2ccccc2)n1-c1ccccc1 [Octimibate],1 µg/mL

# Source: patent US5348969A, “Diphenyloxazolyl-oxazoles as platelet aggregation inhibitors” (Bristol-Myers Squibb Company, priority 1992, dated 1994)
